From patent US8338565B2, “Macrocyclic compounds for inhibition of tumor necrosis factor alpha” (Ensemble Therapeutics Corporation, priority 2008, dated 2012)
pIC50: −log10 of the molar value. Like-named read-outs stand apart in the source and are kept apart here. Numbered stars: 1 amine (or outer) side, 2 acyl side, 3 side chain; on linkers, the order of the positions; unused ones are H or OH. Bridge positions count the residues as written; N and C are the ends. Square brackets hold non-standard residues; d marks the D form. Peptide text beside a SMILES is read from it. Tartaroyl(2R,3R-(OAc)2) = CC(=O)O[C@@H](C(=O)[*:1])[C@@H](OC(C)=O)C(=O)[*:2]; dPhe(4-CF3) = N[C@H](Cc1ccc(C(F)(F)F)cc1)C(=O)O; Phe(4-COOH) = N[C@@H](Cc1ccc(C(=O)O)cc1)C(=O)O; Bip = N[C@@H](Cc1ccc(-c2ccccc2)cc1)C(=O)O; dPhe(4-NH2) = Nc1ccc(C[C@@H](N)C(=O)O)cc1; Phe(4-Br) = N[C@@H](Cc1ccc(Br)cc1)C(=O)O; Phe(4-NH2) = Nc1ccc(C[C@H](N)C(=O)O)cc1; d(hPhe) = N[C@H](CCc1ccccc1)C(=O)O; 2Thi = N[C@@H](Cc1cccs1)C(=O)O; d2Thi = N[C@H](Cc1cccs1)C(=O)O; Suc = O=C(CCC(=O)[*:2])[*:1]; GABA = NCCCC(=O)O; βAla = NCCC(=O)O

Legend:
[1] = biological target: T1, TNFα / TNFα receptor (TNFα R1/Fc) (Homo sapiens, UniProt P01375); assay: Inhibition of binding of TNFα to the TNFα receptor (plate ELISA competition); conditions: Table 2
T1 construct: purchased R&D Systems
T1 sequence (P01375 77-233 limits assumed, species assumed): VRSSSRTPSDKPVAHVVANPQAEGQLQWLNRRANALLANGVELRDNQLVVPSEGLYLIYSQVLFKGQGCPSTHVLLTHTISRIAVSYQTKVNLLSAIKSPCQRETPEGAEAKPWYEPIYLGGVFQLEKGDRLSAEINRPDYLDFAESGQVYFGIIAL
Outline: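 Compound dilutions were preincubated 30 min at RT with 8.33 nM TNFα R1/Fc in PBST with 2% DMSO, then added to wells coated with 15 nM TNFα for 30 min. Bound receptor was detected with HRP anti-human Fc and TMB, read as A450.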

[2] = system: TNF-α (degradation of IkB in HeLa cells or A431 cells); assay: Human cell-based assay: inhibition of TNF-α induced degradation of IkB; conditions: for inhibition at 5 µM: read-out: Inhibition at Various Compound Concentrations, 5 μM; for inhibition at 10 µM: read-out: Inhibition at Various Compound Concentrations, 10 μM; for inhibition at 25 µM: 25 μM compound, read-out: Inhibition at Various Compound Concentrations, 25 μM
Protocol: We used a human cell-based assay to determine the TNF-α antagonistic activity of the compounds of this invention based upon the ability of the compounds to inhibit the degradation of IkB in those cells. The assay was performed on either HeLa cells or A431 cells.
On Day 1, wells of a 24-well tissue culture plate were seeded with cells that had been harvested from cultures in T-75 flasks by standard trypsin/EDTA treatment. The harvested cells were suspended in EMEM/10% FBS/P/S (100,000 HeLa cells/mL or 200,000 A431 cells/mL) and 1 mL aliquots were placed into each well. The cells were incubated overnight at 37° C. in a humidified CO2 incubator. On day 2, the cells were approximately 95% confluent.
Test and control compounds were diluted to a 1 mM solution by dilution in DMSO. The assay was run in Costar tubes. Into each tube was placed 2.5 or 5.0 μL of test compound (for testing 5 μM and 10 μM concentrations, respectively), 2.5 μL of 100× TNF-α solution (200 ng/mL TNF-α in EMEM containing 1μg/mL cycloheximide) and, for those tubes containing 2.5 μL of compound, an additional 2.5 μL of DMSO. To each tube was then added 0.5 mL of EMEM containing 1μg/mL cycloheximide. Negative control tubes contained either a) no compound, or b) no TNF-α. Tubes were then incubated for 30 minutes at room temperature.
Once incubation had begun, the media was aspirated from the cells in the 24-well plates. Sufficient EMEM/10% FBS/P/S containing 1 ug/mL cycloheximide was then added to cover the cells (approximately 3 mL) and the cells were retuned to the 37° C. humidified CO2 incubator until compound incubation was completed. The media was then aspirated from the cells, 0.2 mL of the compound solution was added and the cells re-incubated at 37° C. for 30 minutes. The plates were then placed on ice, the compound solution was aspirated from each well, and the cells washed once with 1 mL of cold PBS. Cells were then fixed with 500 μL of 3.7% formaldehyde in PBS (“fix solution”) for 20 minutes at room temperature. The fix solution was decanted and the cells permeabilized by 4× washing with 500 uL PBS/0.1% Triton X-100. After the final permeabilization wash, the cells were treated with 500 uL of Odyssey blocking buffer (OBB) and incubated at room temperature with shaking for 90 minutes.
The OBB was decanted and then to each well was then added 125 μL each of mouse anti-IkB CST#4814 (diluted 1:200 in OBB) and rabbit anti-beta-tubulin CST#2146 (diluted 1:200 in OBB). Plates were sealed with parafin and incubated overnight at room temperature with shaking.
On day 3, the antibody solution was removed from the cells and the cells were washed 5× with 0.5 mL PBST for five minutes each on a shaker. To each well was then aded 125 μL of a secondary antibody solution containing goat anti-mouse IgG-IRDye 800 and goat anti-rabbit IgG-IRDye (each diluted 1:500 in OBB+0.2% Tween 20). The plates were covered with aluminum foil and incubated for 1 hour at room temperature with shaking. The secondary antibody solution was removed and the cells washed 3× with 0.5 mL PBST for five minutes each on a shaker. Cells were then scanned by LICOR with the following settings: 700 intensity=6.0, 800 intensity=6.5; microplate2 settings with 3.0 mm offset; 169 resolution. LICOR values were fitted to an equation for a sigmoidal curve and IC50 values calculated from the fitted parameters. […] Blank cells indicate that the compound was not tested at that concentration. Certain compounds that were tested more than once and the values reflect the average of the multiple tests.

[3] = Activity (IC50, inhibition of TNFα binding to TNFα R1/Fc)
[4] = read-out: Activity (IC50, inhibition of TNFα binding to TNFα R1/Fc)
[5] = 10 μM compound, HeLa or A431 cells
[6] = 5 μM compound, HeLa or A431 cells

SMILES	pIC50 [1, 3]	inhibition at 5 µM [2]	inhibition at 10 µM [2]	pIC50 [1, 4]	inhibition at 10 µM [2, 5]	inhibition at 5 µM [2, 6]	inhibition at 25 µM ([2]; HeLa or A431 cells)
O=C(O)CN(Cc1ccccc1)C(=O)[C@@H]1Cc2ccc(cc2)OCC(=O)N[C@H](Cc2cccs2)C(=O)N[C@@H](Cc2ccc(-c3ccccc3)cc2)C(=O)N[C@H](CCc2ccccc2)C(=O)N1 [Compound 323]	> 5.00	10 to 50%	10 to 50%				
O=C1CCC(=O)N[C@H](Cc2ccc(C(F)(F)F)cc2)C(=O)N[C@@H](Cc2ccc(-c3ccccc3)cc2)C(=O)N[C@H](Cc2ccccc2)C(=O)N[C@H](C(=O)O)Cc2ccc(cc2)N1 [Compound 118] ([dPhe(4-CF3)][Bip][dF][Phe(4-NH2)]-OH; linker N-4 via Suc)				4.52 to 5.00	10 to 50%		
O=C1COc2ccc(cc2)C[C@@H](C(=O)NC2(C(=O)O)CC2)NC(=O)[C@H](Cc2ccccc2)NC(=O)[C@H](Cc2ccc(-c3ccccc3)cc2)NC(=O)[C@H](Cc2cccs2)N1 [Compound 344]	> 5.00	10 to 50%	50 to 80%				
COC(=O)[C@H](CC(=O)O)NC(=O)[C@@H]1Cc2ccc(cc2)OCC(=O)N[C@H](Cc2cccs2)C(=O)N[C@@H](Cc2ccc(-c3ccccc3)cc2)C(=O)N[C@H](CCc2ccccc2)C(=O)N1 [Compound 325]				> 5.00	< 10%		
C[C@@H](NC(=O)[C@@H]1Cc2ccc(cc2)OCC(=O)N[C@@H](Cc2cccs2)C(=O)N[C@H](Cc2ccc(-c3ccccc3)cc2)C(=O)N[C@@H](Cc2ccccc2)C(=O)N1)C(=O)O [Compound 384]				> 5.00	< 10%	< 10%	
O=C1N[C@H](CCc2ccccc2)C(=O)N[C@@H](C(=O)O)Cc2ccc(cc2)NC(=O)[C@H](O)[C@@H](O)C(=O)N[C@H](Cc2ccccc2)C(=O)N[C@H]1Cc1ccc(Cl)cc1Cl [Compound 239]				> 5.00	< 10%	< 10%	
O=C1CCNC(=O)c2ccc(cc2)C[C@@H](C(=O)O)NC(=O)[C@@H](Cc2ccccc2)NC(=O)[C@H](Cc2ccc(-c3ccccc3)cc2)NC(=O)[C@@H](CCc2ccccc2)N1 [Compound 248] ([βAla][d(hPhe)][Bip][dF][Phe(4-COOH)]-OH; lactam N-5)				> 5.00	10 to 50%	< 10%	
CC(=O)NCCCC[C@@H]1NC(=O)[C@@H](Cc2ccc(-c3ccccc3)cc2)NC(=O)[C@H](Cc2cccs2)NC(=O)COc2ccc(cc2)C[C@@H](C(=O)O)NC1=O [Compound 369]				4.52 to 5.00	< 10%	< 10%	
O=C(N[C@H](Cc1ccccc1)C(=O)O)[C@@H]1Cc2ccc(cc2)NC(=O)[C@H](O)[C@@H](O)C(=O)N[C@H](Cc2cccs2)C(=O)N[C@@H](Cc2ccc(-c3ccccc3)cc2)C(=O)N[C@H](Cc2ccccc2)C(=O)N1 [Compound 16]				> 5.00	< 10%		
O=C1CCC(=O)N[C@H](Cc2cccs2)C(=O)N[C@@H](Cc2ccc(Br)cc2)C(=O)N[C@H](Cc2ccccc2)C(=O)N[C@H](C(=O)O)Cc2ccc(cc2)N1 [Compound 85] ([d2Thi][Phe(4-Br)][dF][Phe(4-NH2)]-OH; linker N-4 via Suc)				4.52 to 5.00			< 10%
O=C1CCC(=O)N[C@@H](Cc2cccs2)C(=O)N[C@@H](Cc2ccc(-c3ccccc3)cc2)C(=O)N[C@H](Cc2ccccc2)C(=O)N[C@H](C(=O)O)Cc2ccc(cc2)N1 [Compound 43] ([2Thi][Bip][dF][Phe(4-NH2)]-OH; linker N-4 via Suc)				< 4.00			< 10%
O=C1N[C@H](CCc2ccccc2)C(=O)N[C@@H](C(=O)O)Cc2ccc(cc2)NC(=O)[C@H](O)[C@@H](O)C(=O)N[C@H](Cc2ccccc2)C(=O)N[C@H]1Cc1ccc(Br)cc1 [Compound 237]				> 5.00	< 10%	< 10%	
CC(=O)O[C@H]1C(=O)Nc2ccc(cc2)C[C@H](C(=O)O)NC(=O)[C@@H](CCc2ccccc2)NC(=O)[C@H](Cc2ccc(-c3ccccc3)cc2)NC(=O)[C@@H](Cc2cccs2)NC(=O)[C@@H]1OC(C)=O [Compound 217] ([d2Thi][Bip][d(hPhe)][dPhe(4-NH2)]-OH; linker N-4 via Tartaroyl(2R,3R-(OAc)2))				> 5.00	< 10%	< 10%	
O=C1COc2ccc(cc2)C[C@@H](C(=O)O)NC(=O)[C@H](Cc2ccccc2)NC(=O)[C@H](Cc2ccc(-c3ccncc3)cc2)NC(=O)[C@H](Cc2cccs2)N1 [Compound 366]		< 10%	< 10%	> 5.00			
NCCCC(=O)N[C@H]1CC(=O)Nc2ccc(cc2)C[C@@H](C(=O)O)NC(=O)[C@@H](Cc2ccccc2)NC(=O)[C@H](Cc2ccc(-c3ccccc3)cc2)NC(=O)[C@@H](Cc2cccs2)NC1=O [Compound 379] (H-[GABA]D[d2Thi][Bip][dF][Phe(4-NH2)]-OH; lactam 2-6)				> 5.00	10 to 50%	50 to 80%	
O=C1N[C@H](CCc2ccccc2)C(=O)N[C@@H](C(=O)O)Cc2ccc(cc2)NC(=O)[C@H](O)[C@@H](O)C(=O)N[C@H](Cc2cccs2)C(=O)N[C@H]1Cc1ccc(-c2ccccc2)cc1 [Compound 236]				> 5.00	10 to 50%	10 to 50%	
O=C1CCC(=O)N[C@H](Cc2cccs2)C(=O)N[C@@H](Cc2ccc(-c3ccccc3)cc2)C(=O)N[C@H](Cc2ccccc2)C(=O)N[C@H](C(=O)O)Cc2ccc(cc2)N1 [Compound 1] ([d2Thi][Bip][dF][Phe(4-NH2)]-OH; linker N-4 via Suc)				4.52 to 5.00			10 to 50%
O=C1COc2ccc(cc2)C[C@@H](C(=O)N[C@H](Cc2ccccc2)C(=O)O)NC(=O)[C@@H](CCc2ccccc2)NC(=O)[C@H](Cc2ccc(-c3ccccc3)cc2)NC(=O)[C@@H](Cc2cccs2)N1 [Compound 324]	> 5.00	10 to 50%	10 to 50%				
O=C(O)CCCNC(=O)[C@@H]1Cc2ccc(cc2)NC(=O)CCC(=O)N[C@H](Cc2cccs2)C(=O)N[C@@H](Cc2ccc(-c3ccccc3)cc2)C(=O)N[C@H](Cc2ccccc2)C(=O)N1 [Compound 34] ([d2Thi][Bip][dF][Phe(4-NH2)][GABA]-OH; linker N-4 via Suc)				> 5.00			< 10%
O=C1COc2ccc(cc2)C[C@@H](C(=O)O)NC(=O)[C@H](Cc2ccccc2)NC(=O)[C@H](Cc2ccc(-c3ccc(F)cc3)cc2)NC(=O)[C@H](Cc2cccs2)N1 [Compound 363]		50 to 80%	10 to 50%	> 5.00			
